Source: US8163793B2, “Proline derivatives” (Hoffman-La Roche Inc., priority 2009, dated 2012)
Structures can show the parent of a compound that is named as a salt.

Columns and labels:
Cathepsin S = Cathepsin S (UniProt P25774); experiment: Cathepsin enzyme inhibition assay (fluorogenic peptide substrate Z-Val-Val-Arg-AMC), Cathepsin S; format: biochemical, human and mouse; conditions: enzyme 1 nM, substrate 20 μM, pH 6.5; read-out: CatS IC50
Summary of the method: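 Human or mouse cathepsin S (1 nM) was run in 100 mM potassium phosphate pH 6.5 with 5 mM EDTA, 0.001% Triton X-100 and 5 mM DTT. The rise in AMC fluorescence from cleavage was measured, and IC50 values were calculated by standard methods and expressed in μM.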

Cat L = Cat L (UniProt P07711); experiment: Cathepsin enzyme inhibition assay (fluorogenic peptide substrate Z-Val-Val-Arg-AMC), Cathepsin L; format: biochemical, human and mouse; conditions: enzyme 1 nM, substrate 20 μM, pH 6.5; read-out: CatL IC50
Summary of the method: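 Cathepsin L at 1 nM was mixed with compound, then started with 20 μM Z-Val-Val-Arg-AMC in pH 6.5 potassium phosphate with EDTA, Triton X-100 and 5 mM DTT. AMC fluorescence (ex 360/em 465 nm) was followed over 20 min. IC50 is given in μM.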

`Cc1cc(N2C[C@H](S(=O)(=O)c3ccccc3C(F)(F)F)C[C@H]2C(=O)NC2(C#N)CC2)n(C2CCCCC2)n1` [Example 318, (2S,4R)-1-(2-Cyclohexyl-5-methyl-2H-pyrazol-3-yl)-4-(2-trifluoromethyl-benzenesulfonyl)-pyrrolidine-2-carboxylic acid (1-cyano-cyclopropyl)-amide] showed an IC50 (Cathepsin S) of 0.000437 µM and an IC50 (Cat L) of 11.3 µM.
Compound `N#CC1(NC(=O)[C@@H]2C[C@@H](S(=O)(=O)c3ccc(OC4COC4)cc3Cl)CN2)CC1` [Example 181, (2S,4R)-4-[2-Chloro-4-(oxetan-3-yloxy)-benzenesulfonyl]-pyrrolidine-2-carboxylic acid (1-cyano-cyclopropyl)-amide] has an IC50 (Cathepsin S) of 0.0037 µM and an IC50 (Cat L) of 16.5 µM.
`CC(C)(C)OC(=O)N1C[C@H](S(=O)(=O)c2ccccc2CO)C[C@H]1C(=O)NC1(C#N)CC1` [Example 1, (2S,4R)-2-(1-Cyano-cyclopropylcarbamoyl)-4-(2-hydroxymethyl-benzenesulfonyl)-pyrrolidine-1-carboxylic acid tert-butyl ester] gave an IC50 (Cathepsin S) of 0.015 µM and an IC50 (Cat L) of at least 25 µM.
With `Cc1cc(N2C[C@H](S(=O)(=O)c3ccccc3C(F)(F)F)C[C@H]2C(=O)NC2(C#N)CC2)n(-c2ccc(C(F)(F)F)cc2)n1` [Example 232, (2S,4R)-1-[5-Methyl-2-(4-trifluoromethyl-phenyl)-2H-pyrazol-3-yl]-4-(2-trifluoromethyl-benzenesulfonyl)-pyrrolidine-2-carboxylic acid (1-cyano-cyclopropyl)-amide] the IC50 (Cathepsin S) was 0.00021 µM and the IC50 (Cat L) was 12.8 µM.
`Cc1cc(N2C[C@H](S(=O)(=O)c3ccccc3Cl)C[C@H]2C(=O)NC2(C#N)CC2)n(C2CCOCC2)n1` [Example 478, (2S,4R)-4-(2-Chloro-benzenesulfonyl)-1-[5-methyl-2-(tetrahydro-pyran-4-yl)-2H-pyrazol-3-yl]-pyrrolidine-2-carboxylic acid (1-cyano-cyclopropyl)-amide] was tested, and the IC50 (Cathepsin S) was 0.0031 µM and the IC50 (Cat L) was 3.67 µM.
`COc1ccc(S(=O)(=O)[C@@H]2C[C@@H](C(=O)NC3(C#N)CC3)N(C(=O)OC(C)(C)C)C2)c(Cl)c1` [Example 387, (2S,4R)-4-(2-Chloro-4-methoxy-benzenesulfonyl)-2-(1-cyano-cyclopropylcarbamoyl)-pyrrolidine-1-carboxylic acid tert-butyl ester] was tested, and the IC50 (Cathepsin S) was 0.0067 µM and the IC50 (Cat L) was 52.5 µM.
In the case of `N#CC1(NC(=O)[C@@H]2C[C@@H](S(=O)(=O)c3ccc(-n4ccnc4)cc3)CN2)CC1` [Example 14, (2S,4R)-4-(4-Imidazol-1-yl-benzenesulfonyl)-pyrrolidine-2-carboxylic acid (1-cyano-cyclopropyl)-amide Hydrochloride], the IC50 (Cathepsin S) is reported as 0.0032 µM and the IC50 (Cat L) is reported as at least 25 µM.
Work on `N#CCNC(=O)[C@@H]1C[C@@H](S(=O)(=O)c2ccccc2Cl)CN1C1COC1` [Example 63, (2S,4R)-4-(2-Chloro-benzenesulfonyl)-1-oxetan-3-yl-pyrrolidine-2-carboxylic acid cyanomethyl-amide] yielded an IC50 (Cathepsin S) of 0.1 µM and an IC50 (Cat L) of at least 25 µM.
`Cc1cc(N2C[C@H](S(=O)(=O)c3ccccc3C(F)(F)F)C[C@@H]2C(=O)NC2(C#N)CC2)n(C2CCCCC2)n1` [Example 320, (2R,4R)-1-(2-Cyclohexyl-5-methyl-2H-pyrazol-3-yl)-4-(2-trifluoromethyl-benzenesulfonyl)-pyrrolidine-2-carboxylic acid (1-cyano-cyclopropyl)-amide] showed an IC50 (Cathepsin S) of 0.0805 µM and an IC50 (Cat L) of at least 25 µM.
For `CS(=O)(=O)[C@@H]1C[C@@H](C(=O)NC2(C#N)CC2)N(C(=O)C2(C(F)(F)F)CC2)C1` [Example 440, (2S,4R)-4-Methanesulfonyl-1-(1-trifluoromethyl-cyclopropanecarbonyl)-pyrrolidine-2-carboxylic acid (1-cyano-cyclopropyl)-amide], the IC50 (Cathepsin S) was 7.47 µM and the IC50 (Cat L) was at least 25 µM.
